# Measurements: patent US11883526B2 (priority 2019, dated 2024)
# Where “and” joins values, the source holds several entries; their conditions need not be identical. Identical values can stand only once. Entries after “also recorded” stand apart in the source; their conditions may differ. Counter-ions that a name gives are not always drawn. Like-named read-outs stand apart in the source and are kept apart here. Marks after values point to notes of the source that are not given here.
# Columns and labels:
# [1] = Excerpt: This example provides an LC-MS/MS method for the determination of ketamine and norketamine in sodium heparin human plasma using ketamine-d4 and norketamine-d4 as the respective internal standards (IS).
# [2] = test system: adult female Sprague Dawley rats; conditions: 3 hours after a single intraperitoneal injection; cited from earlier work
# [3] = test system: female Sprague-Dawley rats; experiment: Single dose neurotoxicity study: mortality, clinical observations, body weight; type: in vivo, rat; conditions: for Clinical observation incidence: Abnormal respiration / Clinical observation incidence: Ataxia / Clinical observation incidence: Catalepsy / Clinical observation incidence: Chromodacryorrhea / Clinical observation incidence: Decreased general activity / Clinical observation incidence: Decubitus / Clinical observation incidence: Increased general activity / Clinical observation incidence: Narrowed palpebral fissure / Clinical observation incidence: Piloerection / Clinical observation incidence: Salivation (out of normal) / Clinical observation incidence: audible respiration / Clinical observation incidence: bradypnoea: single dose
# Procedure: The injection volume was 5 mL/kg.
# (§1) Body weight and body weight gain were measured daily.
# [4] = test system: female Sprague-Dawley rats; experiment: 14-day repeated dose neurotoxicity study: brain histopathology (neuronal necrosis in PCG/RSC); conditions: up to 54 mg/day for 14 days, 48 hours after last instillation; hydrochloride
# Procedure: Due to logistic constraints associated with the whole body perfusion procedure of the animals at necropsy, a staggered start was applied to the study. Consequently, all 5 groups of main study animals were divided into three subgroups of 4 animals each. For each of these subgroups treatment started on a different day. The perfusion procedure is the is the same as described for the single dose study.
# All vehicle- and esketamine HCl-treated animals were sacrificed at 48 hours after the last instillation. […] The brain tissue of the vehicle control-, positive control- and esketamine HCl-treated rats were processed at the same time and handled in the same way in batches of 4 animals per group.
# Brain tissue was sampled and processed routinely. The trimmed and embedded tissue was sectioned and stained with hematoxylin-eosin (HE). Histoprocessing and staining were carried out in three batches of 4 animals per group (each batch thus containing 4 animals from vehicle control-, positive control- and the three esketamine HCl-treated groups).
# Histopathological examination was performed on 7 levels of brain tissue according to Bolon (2013. Toxicol. Pathol. 41(7), 1028-1048) from the vehicle control-, positive control-, and high dose esketamine HCl-treated groups in the single dose study, and in all groups in the repeated dose study.
# The microscopic finding of neuronal necrosis in the PCG/RSC of the brain was graded unilaterally according to the number of necrotic neurons observed over the total length of the PCG/RSC structure visible in the tissue section (usually around 3-5 mm) utilizing the following criteria:
# [5] = test system: female Sprague-Dawley rats; experiment: 14-day repeated dose neurotoxicity study: mortality, clinical observations, body weight; type: in vivo, rat; conditions: for Clinical observation incidence: Abnormal respiration / Clinical observation incidence: Ataxia / Clinical observation incidence: Chromodacryorrhea / Clinical observation incidence: Decreased general activity / Clinical observation incidence: Decubitus / Clinical observation incidence: Increased general activity / Clinical observation incidence: Salivation (out of normal) / Clinical observation incidence: audible respiration / Clinical observation incidence: bradypnoea: 14 days
# Procedure: as §1
# [6] = test system: female Sprague-Dawley rats; experiment: Single dose neurotoxicity study: brain histopathology (neuronal necrosis in PCG/RSC); conditions: single dose up to 72 mg, 48 or 96 hours post-dose; hydrochloride
# Procedure: In order to prepare for brain histopathology examination, all main study animals were perfused at necropsy. Prior to the perfusion, rats were anesthetized with isoflurane. After injection of 0.1 ml heparin, the blood of the rat was flushed out with a physiological saline solution by intraarterial insertion of a needle in the abdominal aorta. Thereafter the rat was perfused with glutaraldehyde 3% in potassium phosphate 0.09M and 1.4% sucrose. Due to logistic constraints at maximum 30 animals could undergo the whole-body perfusion procedure on a given day. Therefore, a staggered start of treatment was applied to all 5 groups of main study animals. Consequently, subgroups of 4 main study animals of the vehicle- and 36 and 54 mg-dosed groups, and 5 main study animals of the 72 mg-dosed and positive control groups, were dosed on 6 consecutive days, respectively.
# The vehicle control, positive control, and esketamine HCl-dosed animals were sacrificed at either 48 hours (i.e., the first 12 or 15 rats per group) or 96 hours after the dose administration time (i.e., the last 12 or 15 rats per group). The brain tissue of the vehicle control-, positive control- and esketamine HCl-treated rats were processed at the same time and handled in the same way in batches of 4 or 5 animals per group.
# Brain tissue was sampled and processed routinely. […]
# [7] = Solubility of esketamine HCl; conditions: room temperature, pH 4.5, factor 1.15
# Procedure: The clinical investigational product is an aqueous solution of the drug substance, esketamine hydrochloride (HCl). This formulation is administered intranasally to patients using a dual nasal spray device, which delivers one spray into each nostril. […] The formulation was stored at 37° C. for stability reasons until dosing.
structure (smiles),measurement,setting,value
"CNC1(c2ccccc2Cl)CCCCC1=O (racemic) [ketamine, reference compound]",QC sample freeze/thaw stability,[1]; freeze (−20° C.)/thaw (ice-water bath),3 freeze (−20° C.)/thaw (ice-water bath) cycles
same,QC sample freeze/thaw stability,[1]; freeze (−20° C.)/thaw (room temperature),3 freeze (−20° C.)/thaw (room temperature) cycles
same,QC sample long-term storage stability,[1]; human plasma QC sample at −20° C.,1552 days at −20 °C
same,QC sample bench-top stability,"[1]; human plasma QC sample, room temperature",68.5 hours at room temp
same,Stock solution stability (spike solutions),[1]; ketamine/norketamine spike solutions at −20° C.,610 days at −20 °C for ketamine/norketamine spike solutions
same,Processed sample stability,[1]; room temperature,146.5 hours at room temperature
same,Whole Blood Stability,[1]; room temperature and ice-water bath (0-4° C.),120 minutes at room temperature and in an ice-water bath (0-4° C.)
same,Stock solution stability,[1]; stock solutions at room temperature under white light,6 h
same,Stock solution stability,[1]; stock solutions at −20° C.,15100 h
same,ED50 for induction of neuronal vacuolation in the PCG/RSC,[2],47.5 mg/kg body weight
"CN[C@]1(c2ccccc2Cl)CCCCC1=O [esketamine HCl, (S)-2-(2-chlorophenyl)-2-(methylamino)cyclohexanone hydrochloride]","duration of decreased activity, decubitus, bradypnea, catalepsy (anesthesia) after last instillation",[3]; 36 mg,15 to 30 min
same,duration of ataxia after decreased activity had subsided,"[3]; 54 mg, hydrochloride",1.5 to 3 h and 1 to 3 h
same,duration of ataxia after decreased activity had subsided,[3]; 72 mg,≥ 3 h
same,Clinical observation incidence: Abnormal respiration,[3]; 36 mg intranasal,22/24 ***
same,Clinical observation incidence: Ataxia,[3]; 36 mg intranasal,24/24 ***
same,Clinical observation incidence: Catalepsy,[3]; 36 mg intranasal,20/24 ***
same,Clinical observation incidence: Chromodacryorrhea,[3]; 36 mg intranasal,0/24
same,Clinical observation incidence: Decreased general activity,[3]; 36 mg intranasal,23/24 ***
same,Clinical observation incidence: Decubitus,[3]; 36 mg intranasal,23/24 ***
same,Clinical observation incidence: Increased general activity,[3]; 36 mg intranasal,24/24 ***
same,Clinical observation incidence: Narrowed palpebral fissure,[3]; 36 mg intranasal,7/24**
same,Clinical observation incidence: Piloerection,[3]; 36 mg intranasal,0/24
same,Clinical observation incidence: Salivation (out of normal),[3]; 36 mg intranasal,23/24 ***
same,Clinical observation incidence: audible respiration,[3]; 36 mg intranasal,10/24 ***
same,Clinical observation incidence: bradypnoea,[3]; 36 mg intranasal,22/24 ***
same,Clinical observation incidence: Abnormal respiration,[3]; 54 mg intranasal,22/24 ***
same,Clinical observation incidence: Ataxia,[3]; 54 mg intranasal,24/24 ***
same,Clinical observation incidence: Catalepsy,[3]; 54 mg intranasal,23/24 ***
same,Clinical observation incidence: Chromodacryorrhea,[3]; 54 mg intranasal,0/24
same,Clinical observation incidence: Decreased general activity,[3]; 54 mg intranasal,23/24 ***
same,Clinical observation incidence: Decubitus,[3]; 54 mg intranasal,23/24 ***
same,Clinical observation incidence: Increased general activity,[3]; 54 mg intranasal,24/24 ***
same,Clinical observation incidence: Narrowed palpebral fissure,[3]; 54 mg intranasal,10/24 ***
same,Clinical observation incidence: Piloerection,[3]; 54 mg intranasal,0/24
same,Clinical observation incidence: Salivation (out of normal),[3]; 54 mg intranasal,24/24 ***
same,Clinical observation incidence: audible respiration,[3]; 54 mg intranasal,3/24
same,Clinical observation incidence: bradypnoea,[3]; 54 mg intranasal,21/24 ***
same,Clinical observation incidence: Abnormal respiration,[3]; 72 mg intranasal,30/30 ***
same,Clinical observation incidence: Catalepsy,[3]; 72 mg intranasal,30/30 ***
same,Clinical observation incidence: Chromodacryorrhea,[3]; 72 mg intranasal,0/30
same,Clinical observation incidence: Decreased general activity,[3]; 72 mg intranasal,30/30 ***
same,Clinical observation incidence: Decubitus,[3]; 72 mg intranasal,30/30 ***
same,Clinical observation incidence: Increased general activity,[3]; 72 mg intranasal,29/30 ***
same,Clinical observation incidence: Narrowed palpebral fissure,[3]; 72 mg intranasal,22/30 ***
same,Clinical observation incidence: Piloerection,[3]; 72 mg intranasal,0/30
same,Clinical observation incidence: Salivation (out of normal),[3]; 72 mg intranasal,29/30 ***
same,Clinical observation incidence: audible respiration,[3]; 72 mg intranasal,2/30
same,Clinical observation incidence: bradypnoea,[3]; 72 mg intranasal,30/30 ***
same,mortality,"[3]; single intranasal dose 72 mg, within 30 minutes",two main study animals and two satellite TK animals died
same,mortality,[3]; single intranasal dose up to 54 mg,No test article related mortality
same,histopathological lesions / neuronal necrosis in the brain,[4],absence of neuronal necrosis; also recorded: No histopathological lesions
same,Clinical observation incidence: Abnormal respiration,[5]; 18 mg/day intranasal,2/12
same,Clinical observation incidence: Ataxia,[5]; 18 mg/day intranasal,12/12***
same,Clinical observation incidence: Chromodacryorrhea,[5]; 18 mg/day intranasal,0/12
same,Clinical observation incidence: Decreased general activity,[5]; 18 mg/day intranasal,5/12
same,Clinical observation incidence: Decubitus,[5]; 18 mg/day intranasal,0/12
same,Clinical observation incidence: Increased general activity,[5]; 18 mg/day intranasal,12/12***
same,Clinical observation incidence: Salivation (out of normal),[5]; 18 mg/day intranasal,12/12***
same,Clinical observation incidence: audible respiration,[5]; 18 mg/day intranasal,2/12
same,Clinical observation incidence: bradypnoea,[5]; 18 mg/day intranasal,0/12
same,Clinical observation incidence: Abnormal respiration,[5]; 36 mg/day intranasal,11/12***
same,Clinical observation incidence: Ataxia,[5]; 36 mg/day intranasal,12/12***
same,Clinical observation incidence: Chromodacryorrhea,[5]; 36 mg/day intranasal,0/12
same,Clinical observation incidence: Decreased general activity,[5]; 36 mg/day intranasal,12/12***
same,Clinical observation incidence: Decubitus,[5]; 36 mg/day intranasal,2/12
same,Clinical observation incidence: Increased general activity,[5]; 36 mg/day intranasal,12/12***
same,Clinical observation incidence: Salivation (out of normal),[5]; 36 mg/day intranasal,12/12***
same,Clinical observation incidence: audible respiration,[5]; 36 mg/day intranasal,6/12**
same,Clinical observation incidence: bradypnoea,[5]; 36 mg/day intranasal,11/12***
same,Clinical observation incidence: Abnormal respiration,[5]; 54 mg/day intranasal,12/12***
same,Clinical observation incidence: Ataxia,[5]; 54 mg/day intranasal,12/12***
same,Clinical observation incidence: Chromodacryorrhea,[5]; 54 mg/day intranasal,0/12
same,Clinical observation incidence: Decreased general activity,[5]; 54 mg/day intranasal,12/12***
same,Clinical observation incidence: Decubitus,[5]; 54 mg/day intranasal,8/12***
same,Clinical observation incidence: Increased general activity,[5]; 54 mg/day intranasal,12/12***
same,Clinical observation incidence: Salivation (out of normal),[5]; 54 mg/day intranasal,12/12***
same,Clinical observation incidence: audible respiration,[5]; 54 mg/day intranasal,6/12**
same,Clinical observation incidence: bradypnoea,[5]; 54 mg/day intranasal,12/12***
same,mortality,[5]; up to 54 mg/day for 14 days,No test article related mortality
same,histopathological lesions / neuronal necrosis in the brain,[6],no morphological evidence of neuronal degeneration; also recorded: absent; also recorded: No signs of neuronal necrosis; also recorded: no neuropathological lesions
same,maximum solubility expressed as base,[7],180 mg esketamine base/mL
